Positions count from the first letter of the chain named.
Assays:
[1] = molecular target: T1, TMEM87A (GolpHCat) (Homo sapiens, UniProt Q8NBN3); assay: cryo-EM structure at ~[…] Å with […] sodium gluconate; IC50 from whole-cell patch clamp in CHO-K1 cells; type: cell-based; set-up: full-length hTMEM87A, M1-E555 (isoform 1, NP_056312.2), EGFP-Twin-strep tag
T1 sequence (Q8NBN3 1-555): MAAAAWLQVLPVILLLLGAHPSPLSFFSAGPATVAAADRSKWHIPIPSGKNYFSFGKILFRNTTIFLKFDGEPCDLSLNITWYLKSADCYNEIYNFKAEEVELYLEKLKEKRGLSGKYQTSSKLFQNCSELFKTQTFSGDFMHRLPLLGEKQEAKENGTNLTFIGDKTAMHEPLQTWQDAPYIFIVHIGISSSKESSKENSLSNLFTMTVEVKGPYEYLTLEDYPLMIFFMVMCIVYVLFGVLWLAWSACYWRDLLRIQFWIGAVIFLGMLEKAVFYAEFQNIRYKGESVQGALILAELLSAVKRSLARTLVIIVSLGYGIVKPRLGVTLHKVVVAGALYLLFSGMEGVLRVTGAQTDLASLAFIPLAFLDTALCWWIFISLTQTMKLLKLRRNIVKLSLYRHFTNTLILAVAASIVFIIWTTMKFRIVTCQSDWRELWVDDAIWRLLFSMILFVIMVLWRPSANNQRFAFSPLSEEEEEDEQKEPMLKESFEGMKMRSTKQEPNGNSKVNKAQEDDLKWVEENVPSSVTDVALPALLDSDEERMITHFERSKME

[2] = molecular target: T2, TMEM87A (GolpHCat) (Homo sapiens, UniProt Q8NBN3, A308M); assay: cryo-EM structure at ~[…] Å; co-purified lipid density; type: binding
T2 construct: full-length hTMEM87A, M1-E555
T2 sequence (Q8NBN3 1-555 A308M): T1 sequence (Q8NBN3 1-555) with A308M

[3] = molecular target: T1, TMEM87A (GolpHCat); assay: cryo-EM structure at […] Å; co-purified lipid, assigned from density shape and Golgi lipid composition; type: binding; set-up: full-length hTMEM87A, M1-E555; modelled D38-P473

Question: For `O=C(O)[C@H](O)[C@@H](O)[C@H](O)[C@H](O)CO` [gluconate], which IC50 [1] is on record?
Answer: The IC50 was 100 nM.

Question: For `CCCCCCCC/C=C\CCCCCCCC(=O)O[C@H](COC(=O)CCCCCCCCCCCCCCC)COP(=O)(O)OCCN` [PE, 1-palmitoyl-2-oleoyl-sn-glycerol-3-phosphoethanolamine], which “cryo-EM structure at ~3.1 Å; co-purified lipid density” value [2] is on record?
Answer: Its value is “the PE density in hTMEM87A A308M was displaced to a position similar to that of the S6 state”.

Question: And the “cryo-EM structure at 3.1 Å; co-purified lipid, assigned from density shape and G” value [3]?
Answer: The value was “PE was co-purified with hTMEM87A, suggesting that PE tightly and stably binds to TMEM87A”.

Reference: article PMC11239671, “GolpHCat (TMEM87A), a unique voltage-dependent cation channel in Golgi apparatus, contributes to Golgi-pH maintenance and hippocampus-dependent memory” (Nature Communications, 2024)
